How the values were obtained:
Assay in all cases: MIC, NCCLS broth microdilution
B. Cereus ATCC 11778 = assay type: cell-based, Bacillus cereus; conditions: A = B. Cereus ATCC 11778
From the text: (§1) In vitro biological activity data were collected for a variety of microorganisms, including Bacillus cereus (ATCC 11778), Staphylococcus aureus (ATCC 27660 (a methicillin resistant strain (MRSA), ATCC 33591 and ATCC 43300); ATCC 13709, a methicillin sensitive strain (MSSA)); Streptococcus pneumoniae (ATCC 51422, a penicillin resistant strain (PRSP)), Enterococcus faecium (ATCC 51559, a vancomycin resistant strain (VRE)), and Staphylococcus epidermidis (ATCC 700586, a methycillin resistant strain (MRSE)). Additionally, antifungal activity data were collected for Candida albicans (ATCC 38247). Minimal inhibition concentrations (MIC's) were determined using the National Committee for Clinical Laboratory Standards (NCCLS) broth microdilution assay in microtiter plates, as set forth in: (1) the guidelines of the National Committee for Clinical Laboratory Standards (NCCLS) Document M7-A4 (NCCLS, 1997); (2) the guidelines of the National Committee for Clinical Laboratory Standards (NCCLS) Document M11-A4 (NCCLS, 1997); and (3) the guidelines and reference method of the National Committee for Clinical Laboratory Standards (NCCLS) Document M27-T (NCCLS, 1995). For antifungal essays, the method recommended in Murray, PR., 1995 Manual of Clinical Microbiology (ASM Press, Washington, D.C.), was employed.

[1] = test system: E. faecium ATCC 51559 (vancomycin resistant strain, VRE); assay type: cell-based, Enterococcus faecium; conditions: B = E. faecium ATCC 51559
From the text: as §1

[2] = test system: S. aureus ATCC 13709 (methicillin sensitive strain, MSSA); assay type: cell-based, Staphylococcus aureus; conditions: C = S. aureus ATCC 13709
From the text: as §1

[3] = test system: S. aureus ATCC 27660 (methicillin resistant strain, MRSA); assay type: cell-based, Staphylococcus aureus; conditions: D = S. aureus ATCC 27660
From the text: as §1

S. aureus ATCC 33591 = assay type: cell-based, Staphylococcus aureus; conditions: E = S. aureus ATCC 33591
From the text: as §1

[4] = test system: S. epidermidis ATCC 700586 (methycillin resistant strain, MRSE); assay type: cell-based, Staphylococcus epidermidis; conditions: G = S. epidermidis ATCC 700586
From the text: as §1

[5] = test system: S. pneumoniae ATCC 51422 (penicillin resistant strain, PRSP); assay type: cell-based, Streptococcus pneumoniae; conditions: H = S. pneumoniae ATCC 51422
From the text: as §1

Structure (SMILES)	Minimum Inhibitory Concentration (MIC) (B. Cereus ATCC 11778)	Minimum Inhibitory Concentration (MIC) [1]	Minimum Inhibitory Concentration (MIC) [2]	Minimum Inhibitory Concentration (MIC) [3]	Minimum Inhibitory Concentration (MIC) (S. aureus ATCC 33591)	Minimum Inhibitory Concentration (MIC) [4]	Minimum Inhibitory Concentration (MIC) [5]
CN1CCN(CCCNC(=O)c2cc(NC(=O)c3sc4cc5c(cc4c3Cl)OCO5)cn2C)CC1 [Ib-20r]	+++ (+++ = MIC ≦ 4)	+++ (+++ = MIC ≦ 4)	+++ (+++ = MIC ≦ 4)	+++ (+++ = MIC ≦ 4)	+++ (+++ = MIC ≦ 4)	+++ (+++ = MIC ≦ 4)	+++ (+++ = MIC ≦ 4)
Cc1cc(NC(=O)c2cc(NC(=O)c3cc(NC(=O)c4cc5ccccc5cn4)cn3C)cn2CCCN(C)C)sn1 [Ib-66]	+++ (+++ = MIC ≦ 4)	+++ (+++ = MIC ≦ 4)	+++ (+++ = MIC ≦ 4)	+++ (+++ = MIC ≦ 4)	+++ (+++ = MIC ≦ 4)	+++ (+++ = MIC ≦ 4)	+++ (+++ = MIC ≦ 4)
Cc1cc(NC(=O)c2cc(NC(=O)c3cc(NC(=O)c4cc5ccccc5cn4)cn3C)cn2CCN2CCOCC2)sn1 [Ib-63]	+++ (+++ = MIC ≦ 4)	+++ (+++ = MIC ≦ 4)	+++ (+++ = MIC ≦ 4)	+++ (+++ = MIC ≦ 4)	+++ (+++ = MIC ≦ 4)	+++ (+++ = MIC ≦ 4)	+++ (+++ = MIC ≦ 4)
Cn1cc(NC(=O)c2sc3cc4c(cc3c2Cl)OCO4)cc1C(=O)NCCN1CCSCC1 [Ib-20p]	+++ (+++ = MIC ≦ 4)	+++ (+++ = MIC ≦ 4)	+++ (+++ = MIC ≦ 4)	+++ (+++ = MIC ≦ 4)	+++ (+++ = MIC ≦ 4)	+++ (+++ = MIC ≦ 4)	+++ (+++ = MIC ≦ 4)
Cc1cc(NC(=O)c2cc(NC(=O)c3cc(NC(=O)c4cc5ccccc5cn4)cn3C)cn2CCN2CCCC2)sn1 [Ib-65]	+++ (+++ = MIC ≦ 4)	+++ (+++ = MIC ≦ 4)	+++ (+++ = MIC ≦ 4)	+++ (+++ = MIC ≦ 4)	+++ (+++ = MIC ≦ 4)	+++ (+++ = MIC ≦ 4)	+++ (+++ = MIC ≦ 4)
CN1CCCC1CCNC(=O)c1cc(NC(=O)c2cc(NC(=O)c3cc(NC(=O)c4sc5cc6c(cc5c4Cl)OCO6)cn3C)cn2C)cn1C (stereo not shown) [Ib-20m]	+++ (+++ = MIC ≦ 4)	+++ (+++ = MIC ≦ 4)	+++ (+++ = MIC ≦ 4)	+++ (+++ = MIC ≦ 4)	+++ (+++ = MIC ≦ 4)	+++ (+++ = MIC ≦ 4)	+++ (+++ = MIC ≦ 4)
Cn1cc(NC(=O)c2cc(NC(=O)c3sc4cc5c(cc4c3Cl)OCO5)cn2C)cc1C(=O)NCCN1CCOCC1 [Ib-20e]	+++ (+++ = MIC ≦ 4)	+++ (+++ = MIC ≦ 4)	+++ (+++ = MIC ≦ 4)	+++ (+++ = MIC ≦ 4)	+++ (+++ = MIC ≦ 4)	+++ (+++ = MIC ≦ 4)	+++ (+++ = MIC ≦ 4)
Cn1cc(NC(=O)c2sc3cc4c(cc3c2Cl)OCO4)cc1C(=O)NCCN1CCOCC1 [Ib-20f]	+++ (+++ = MIC ≦ 4)		+++ (+++ = MIC ≦ 4)	+++ (+++ = MIC ≦ 4)	+++ (+++ = MIC ≦ 4)		
Cn1cc(NC(=O)c2sc3cc4c(cc3c2Cl)OCO4)cc1C(=O)NCCN1CCCCC1 [Ib-20n]	+++ (+++ = MIC ≦ 4)		+++ (+++ = MIC ≦ 4)	+++ (+++ = MIC ≦ 4)	+++ (+++ = MIC ≦ 4)		
Cn1cc(NC(=O)c2cc(NC(=O)c3cc(NC(=O)c4cc5ccccc5cn4)cn3C)c[nH]2)cc1C(=O)NCCN1CCOCC1 [Ib-67]	+++ (+++ = MIC ≦ 4)	+++ (+++ = MIC ≦ 4)	+++ (+++ = MIC ≦ 4)	+++ (+++ = MIC ≦ 4)	+++ (+++ = MIC ≦ 4)	+++ (+++ = MIC ≦ 4)	+++ (+++ = MIC ≦ 4)
Cn1cc(NC(=O)c2cc(NC(=O)c3cc(NC(=O)c4sc5cc6c(cc5c4Cl)OCO6)cn3C)cn2C)cc1C(=O)NCCN1CCCC1 [Ib-20g]	+++ (+++ = MIC ≦ 4)		+++ (+++ = MIC ≦ 4)	+++ (+++ = MIC ≦ 4)	+++ (+++ = MIC ≦ 4)	+++ (+++ = MIC ≦ 4)	+++ (+++ = MIC ≦ 4)
Cn1cc(NC(=O)c2cc(NC(=O)c3cc(NC(=O)c4cc5cc6c(cc5s4)OCO6)cn3C)cn2C)cc1C(=O)NCCN1CCOCC1 [Ib-20v]	+++ (+++ = MIC ≦ 4)		+++ (+++ = MIC ≦ 4)	+++ (+++ = MIC ≦ 4)	+++ (+++ = MIC ≦ 4)		

Results, then the compound that gave them:

Minimum Inhibitory Concentration (MIC) (B. Cereus ATCC 11778)	Minimum Inhibitory Concentration (MIC) [1]	Minimum Inhibitory Concentration (MIC) [2]	Minimum Inhibitory Concentration (MIC) [3]	Minimum Inhibitory Concentration (MIC) (S. aureus ATCC 33591)	Minimum Inhibitory Concentration (MIC) [4]	Minimum Inhibitory Concentration (MIC) [5]	Structure (SMILES)
+++ (+++ = MIC ≦ 4)	+++ (+++ = MIC ≦ 4)	+++ (+++ = MIC ≦ 4)	+++ (+++ = MIC ≦ 4)	+++ (+++ = MIC ≦ 4)	+++ (+++ = MIC ≦ 4)	+++ (+++ = MIC ≦ 4)	CC(=O)[O-].Cc1cc(NC(=O)c2cc(NC(=O)c3cc(NC(=O)c4cc5ccccc5cn4)cn3C)cn2CCC[N+](C)(C)C)sn1 [Ib-74]
+++ (+++ = MIC ≦ 4)	+++ (+++ = MIC ≦ 4)	+++ (+++ = MIC ≦ 4)	+++ (+++ = MIC ≦ 4)	+++ (+++ = MIC ≦ 4)	+++ (+++ = MIC ≦ 4)		Cn1cc(NC(=O)c2cc(NC(=O)c3cc(NC(=O)c4cc5ccccc5cn4)c[nH]3)cn2C)cc1C(=O)NCCc1ccncc1 [Ib-76]
+++ (+++ = MIC ≦ 4)	+++ (+++ = MIC ≦ 4)	+++ (+++ = MIC ≦ 4)	+++ (+++ = MIC ≦ 4)	+++ (+++ = MIC ≦ 4)	+++ (+++ = MIC ≦ 4)	+ (+ = MIC from 12 to 32, inclusive)	COCn1cc(NC(=O)c2cc3ccccc3cn2)cc1C(=O)Nc1cc(C(=O)Nc2cc(C(=O)NCCN3CCOCC3)n(C)c2)n(C)c1 [Ib-72]
>32 µg/mL	+++ (+++ = MIC ≦ 4)	+++ (+++ = MIC ≦ 4)	+++ (+++ = MIC ≦ 4)	+++ (+++ = MIC ≦ 4)	+++ (+++ = MIC ≦ 4)	+++ (+++ = MIC ≦ 4)	Cn1cc(NC(=O)c2cc(NC(=O)c3cc(NC(=O)c4cc5ccccc5cn4)c[nH]3)cn2C)cc1C(=O)NCCc1ccccn1 [Ib-69]
+++ (+++ = MIC ≦ 4)	+++ (+++ = MIC ≦ 4)	+++ (+++ = MIC ≦ 4)	+++ (+++ = MIC ≦ 4)	+++ (+++ = MIC ≦ 4)	+++ (+++ = MIC ≦ 4)	+++ (+++ = MIC ≦ 4)	Cn1cc(NC(=O)c2cc3ccccc3cn2)cc1C(=O)Nc1cc(C(=O)Nc2cc(C(=O)NCCN3CCCCC3)n(CCN3CCCCC3)c2)n(C)c1 [Ib-68]
+++ (+++ = MIC ≦ 4)	+++ (+++ = MIC ≦ 4)	+++ (+++ = MIC ≦ 4)	+++ (+++ = MIC ≦ 4)	+++ (+++ = MIC ≦ 4)	+++ (+++ = MIC ≦ 4)	+++ (+++ = MIC ≦ 4)	Cn1cc(NC(=O)c2cc(NC(=O)c3cc(NC(=O)c4cc5ccccc5cn4)c[nH]3)cn2C)cc1C(=O)NCCN1CCC(F)CC1 [Ib-71]

From patent publication US20040142971A1, “BENZOTHIOPHENE COMPOUNDS HAVING ANTIINFECTIVE ACTIVITY” (GeneSoft, Inc., priority 2001, published 2004)
